Experimental data as given in patent US11001820B2, “Delivery of therapeutic agents by a collagen binding protein” (THE BOARD OF TRUSTEES OF THE UNIVERSITY OF ARKANSAS, priority 2011, dated 2021).
Values belong to the compound of their own block, whether it stands above or below them.

Legend:
androgenic alopecia = conditions: long-term (10 years) therapy; cited from earlier work
[1] = Circular dichroism thermal denaturation of collagenous peptides; format: physicochemical; conditions: triple helix thermostability by [θ]225, 0.3° C./min, 1 mg/ml in water
Method: The triple helical conformation and the stability of the collagenous peptides were verified using CD spectroscopy (See FIGS. 3 and 4). CD spectra were recorded with a J-820 CD spectropolarimeter (JASCO Co., Hachioji, Japan) equipped with a Peltier thermo controller, using a 0.5-mm quartz cuvette and connected to a data station for signal averaging. All peptide samples were dissolved in water (1 mg/ml), and stored at 4° C. for 24 h. The spectra are reported in terms of ellipticity units per mole of peptide residues [θ]mrw. Thermostability of the triple helix was monitored by the [θ]225 values of each peptide with increasing temperature at the rate of 0.3° C./min.

C57BL/6J mice = test: Chemotherapy-induced alopecia (cyclophosphamide) in depilated mice; format: in vivo
Method: We compared efficacy of CBD linked PTH agonists and antagonists in chemotherapy-induced alopecia, utilizing an experimental design published by Peters, et al., for non-CBD linked PTH compounds. Peters, et al. (2001) J Invest Dermatol 117:173-178. C57BL/6J mice (Jackson Laboratories, Bar Harbor, Me.) were depilated to synchronize the hair follicles, and cyclophosphamide (CYP, 150 mg/kg) was administered on day 9 to maximize the chemotherapy-induced damage. The agonist (PTH-CBD) and the antagonist (PTH(7-33)-CBD) were administered 2 days prior to chemotherapy, and given the long-term retention of the compounds in the skin, we administered only a single dose to cover the timing of the multiple injections of PTH agonist and antagonist in the study by Peters, et. al. The administered dose of CBD-linked compounds (320 mcg/kg) is well tolerated in mice. Ponnapakkam et al. (2011) Calcif 88:511-520. […].
We followed these studies by comparing the effects of different doses of PTH-CBD in chemotherapy-induced alopecia. In these studies, we applied the injections more distally on the back and applied a gray-scale analysis to quantify the amount of hair growth. Injecting more distally in the back allows us to compare regrowth of hair after PTH-CBD treatment with less interference from the normal hair regrowth, which normally proceeds from head to tail in mice.

mice = test: Chemotherapy-induced alopecia without depilation; format: in vivo
Method: While the depilated model of chemotherapy-induced alopecia provides a uniform model for comparison of drug effects, the depilation process is known to cause hair follicle injury, and may alter the response of the animals to the PTH-CBD administration. We therefore tested the effects of PTH-CBD in another model of chemotherapy-induced alopecia, where the animals were given 3 courses of cyclophosphamide therapy (50 mg/kg/wk), similar to the usual manner in which cancer patients might be treated. In this model, it takes much longer (4-6 months) for alopecia to develop.
In a second study, we compared the effects of PTH-CBD when given prophylactically, at the time of the first cycle of chemotherapy, vs. therapeutically, after the hair loss had developed. […] This is evident both visually and quantitatively in FIG. 17, using the same grey scale analysis used in our dose-response study.

engrafted C3H/Hej mouse = test: Alopecia areata model; format: in vivo
Source text: Alopecia Areata is a disease of patchy hair loss due to autoimmune destruction of the hair follicles. We tested the efficacy of PTH-CBD in promoting regrowth of hair in an animal model of alopecia areata, the engrafted C3H/Hej mouse. In this model, hair loss develops variably over the first 2 months of life. Shown in FIG. 19 is the results of a single dose of PTH-CBD (320 mcg/kg subcutaneous) administered into the engrafted site, the center of the back, where there was maximal hair loss. Compared to vehicle control animals, which continued to lose hair at this site, animals receiving PTH-CBD began to show regrowth of hair within the next 1-4 days.

C57/BL6J mice = test: Depilation alopecia (waxing); format: in vivo
Source text: The agonist PTH-CBD appears to increase hair growth by increasing the number of anagen phase hair follicles. As such, there is no reason to believe that hair growth effects should be limited to the chemotherapy model. We therefore tested both PTH-CBD and antagonist compound, PTH(7-33)-CBD, after removing hair from C57/BL6J mice by waxing (FIG. 18). […] Thus, it appears that agonist therapy is acting to promote more rapid regrowth of hair by promoting more rapid transition to the anagen phase, while the antagonist inhibited hair regrowth by blocking this transition.

[2] = Tissue distribution of 35S-labelled PTH-CBD by whole-body autoradiography; format: in vivo, mice; conditions: subcutaneous injection, 1 hour and 12 hours
Method: Tissue distribution was assessed by administering ^35S-labelled PTH-CBD via subcutaneous injection, followed by whole mount frozen and whole-body autoradiography. PTH-CBD with a phosphorylation site between PTH(1-33) and the CBD was purified, activated and labeled with […] as described previously. Tamai et al. (2003) Infect Immun. 71:5371-5375. Approximately 10.8 mcg of ^35S-PTH-CBD (122 kcm/mcg) was injected subcutaneously in 7 week-old mice (32-35 g). Mice were sacrificed at 1 hour or 12 hours post-injection, and then frozen in dry ice-acetone. Frozen sections ([…]) were prepared with an autocryotome, dried at −20° C., and exposed to an image plate for 4 weeks. There appeared to be an initial distribution of ^35S-PTH-CBD to a broad area of skin around the site of injection, followed by a rapid redistribution to the skin of the entire animal, as well as to several other tissues (i.e. bone, intestine, bladder) (FIG. 11).

ovarectomized rat = test: Ovarectomized aged rats, single dose, sacrifice 6 months after therapy; format: in vivo; conditions: 6 months after single dose 320 mcg/kg
Method: In this experiment, rats had their ovaries surgically removed at age 3 months. At age 9 months, rats were injected with either a single dose of PTH-CBD (320 mcg/kg) or vehicle control. Animals were sacrificed 6 months after therapy (age 15 months). […] Serum calcium was measured and there were no differences between groups (Vehicle: 13.5+/−1.1 vs. PTH-CBD: 14.3+/−1.1 mg/dl, NS). […] These findings indicate that a single injection of PTH-CBD can provide long-term suppression of endogenous PTH production, preventing the normal rise seen with age in the ovarectomized rat model, and thus may serve as a therapy for hyperparathyroidism.

Compound: CC(C)(C)NC(=O)[C@H]1CC[C@H]2[C@@H]3CC[C@H]4NC(=O)C=C[C@]4(C)[C@H]3CC[C@]12C [Finasteride]
response rates (androgenic alopecia): around 50%

Compound: (POG)4POA(POG)5
Melting temperatures (Tm) [1]: 29 °C

Compound: (POG)4POA(POG)5C-PROXYL
Melting temperatures (Tm) [1]: 30 °C

Compound: PROXYL-(POG)3POA(POG)6
Melting temperatures (Tm) [1]: 28 °C

Compound: PROXYL-(POG)4POA(POG)5
Melting temperatures (Tm) [1]: 29 °C

Compound: PROXYL-(POG)5POA(POG)4
Melting temperatures (Tm) [1]: 28 °C

Compound: PROXYL-(POG)6POA(POG)3
Melting temperatures (Tm) [1]: 27 °C

Compound: PTH-CBD: first 33 amino acids of PTH linked directly to the collagen binding domain (SEQ ID NO: 1)
hair regrowth, gray-scale analysis (C57BL/6J mice; 100, 320, 1000 mcg/kg): dose-dependent effect | hair follicle histology (C57BL/6J mice; H&E, day 36, 320 mcg/kg): deeper rooting and reduced melanocyte clumping | excess hair length or growth (C57BL/6J mice; body, ears and tail): no evidence of excess hair length | Counts of anagen VI hair follicles per high-powered field (C57BL/6J mice; day 36, 320 mcg/kg): higher number of hair follicles | adverse effects (C57BL/6J mice; mouse, in vivo): no evidence of adverse effects | serum calcium (C57BL/6J mice; mouse, in vivo): no effect | hair growth (photodocumentation) (C57BL/6J mice; single dose 320 mcg/kg, 2 days prior to CYP, day 36): far more effective at stimulating hair growth than was the antagonist | effect on hair, prophylactic vs. therapeutic dosing (mice; grey scale analysis): effective in both instances | hair loss (mice; single dose 320 mcg/kg subcutaneous prior to first of 3 cyclophosphamide courses): did not develop hair loss | duration of response (engrafted C3H/Hej mouse; single dose 320 mcg/kg): sustained during the 2 month course | time to regrowth of hair (engrafted C3H/Hej mouse; single dose 320 mcg/kg subcutaneous into engrafted site): 1 to 4 days | anagen eruption (C57/BL6J mice; after waxing, vehicle day 9): 7 days | regrowth of hair (C57/BL6J mice; end of study (day 18)): more complete regrowth of hair | tissue distribution [2]: distribution and retention to skin | Human intact PTH levels (serum levels of PTH-CBD) (ovarectomized rat): undetectable | Rat intact PTH levels (endogenous PTH production) (ovarectomized rat): suppressed the normal increase in endogenous PTH levels | serum calcium (ovarectomized rat; NS vs vehicle): 14.3 ± 1.1 mg/dL

Melting temperatures (Tm) [1]: 28 °C
Compound: ^11PROXYL-(POG)3PCG(POG)4
